Results taken from US11788147B2, “Markers of triple-negative breast cancer and uses thereof” (Vanderbilt University, priority 2011, dated 2023).

Assays:
[1] = system: HCC1806 and MDA-MB-468 xenograft tumors; test: Xenograft tumor studies (Example 1), basal-like; assay type: in vivo, mice; conditions: cisplatin i.p. 8 mg/kg/wk, approximately 3 weeks, relative to vehicle control; P<0.0001
Protocol: Xenograft tumor studies. Five-week-old female athymic nude-Foxnlnu mice (Harlan Sprague-Dawley) were injected (s.c.) with either approximately 5×10^6 (CAL-51, HCC1806, MDA-MB-468, and SUM185PE) or approximately 10×10^6 (CAL-148 and SUM159PT) cells suspended in medium (200 μl) into each flank using a 22-gauge needle. The protocols describing the process of xenograft tumor formation in athymic mice were reviewed and approved by the Vanderbilt Institutional Review Board. Once tumors reached a volume of 25-50 mm^3, mice were randomly allocated to treatment or vehicle arms. Treatments included bicalutamide per oral (100 mg/kg/d), cisplatin i.p. (8 mg/kg/wk), or NVP-BEZ235 per oral (50 mg/kg/d) in 1:9 N-methylpyrolidone: PEG300. Tumor diameters were serially measured at the indicated times with digital calipers, and tumor volumes were calculated as width^2×length/2. Data points reflect the means and SEM for 16 tumors per treatment.

[2] = system: LAR TNBC cell lines; test: Cell proliferation/viability assay (alamarBlue) and IC50 determination; assay type: cell-based, human; conditions: LAR lines, 72 hours
Protocol: Cell proliferation/viability assays and IC50 determinations. All cell lines and culture conditions used can be found in Supplemental Methods (Table 5). Short tandem repeat (STR) DNA fingerprinting analysis was performed on all TNBC cell lines used in this study (Cell Line Genetics). […] Breast cancer cell lines and HMECs were seeded (3,000-10,000 cells) in quadruplicate wells in 96-well plates. […] Medium was then replaced with either fresh medium (control) or medium containing half-log serial dilutions of the following drugs: 0.3-30 μM olaparib (ChemieTek), 0.3-30 μM veliparib (ChemieTek), 1-100 μM bicalutamide (IPR Pharmaceutical), 0.3-30 μM cisplatin (APP Pharmaceutical), 3-300 nM NVP-BEZ235 (Chemdea), 10-1000 nM 17-DMAG (ChemieTek), and 0.1-10 μM dasatinib (LC Laboratories). Viability was determined from measuring fluorescent intensity after metabolic reduction of alamarBlue in the presence/absence of the drug after 72 hours. Viability assays were performed in triplicate, and replicates were normalized to untreated wells. […] For analysis of cell-line drug assays, data generated from the different cell lines representative of TNBC subtypes were compared using the nonparametric Mann-Whitney U test. All analyses and graphic representations were performed using Prism software (version 4.0c; GraphPad Software), and values are represented as the mean±SEM.

[3] = system: heterogeneous TNBC patient population; conditions: neoadjuvant, single agent; cited from earlier work

For `N.N.[Cl][Pt][Cl]` [cisplatin], the xenograft tumor growth [1] is given as “significantly growth inhibited”, the IC50 [2] is given as 15 µM and the pCR [3] is given as 21%.
